Assay results from ChEMBL document CHEMBL1743341, “Cytochrome p450 enzymes mechanism based inhibitors: common sub-structures and reactivity” (Curr Drug Metab, 2005).
Each block holds one molecule with its values, some of them ahead of it.

Assays:
Format in all cases: ADME
[1] = target: T1, CYP2A6 (Homo sapiens, UniProt P11509); test: (§1) Mechanism based inhibition of human cytochrome P450 2A6 measured by coumarin 7-hydroxylation
T1 sequence (P11509 whole entry): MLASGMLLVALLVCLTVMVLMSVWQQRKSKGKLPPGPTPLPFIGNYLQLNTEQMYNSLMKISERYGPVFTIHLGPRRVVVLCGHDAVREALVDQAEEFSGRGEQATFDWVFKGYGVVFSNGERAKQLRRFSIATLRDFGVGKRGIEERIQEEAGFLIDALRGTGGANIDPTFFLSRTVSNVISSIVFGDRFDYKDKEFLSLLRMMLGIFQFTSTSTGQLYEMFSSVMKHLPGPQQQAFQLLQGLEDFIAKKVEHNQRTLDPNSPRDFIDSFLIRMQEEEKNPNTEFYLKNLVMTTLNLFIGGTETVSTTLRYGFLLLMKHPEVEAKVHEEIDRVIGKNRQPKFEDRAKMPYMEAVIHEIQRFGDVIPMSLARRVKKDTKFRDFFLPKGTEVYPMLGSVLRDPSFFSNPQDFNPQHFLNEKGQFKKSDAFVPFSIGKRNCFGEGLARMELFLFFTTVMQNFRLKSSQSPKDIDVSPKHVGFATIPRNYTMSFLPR

[2] = target: T2, Cytochrome P450 2A6 (Homo sapiens, UniProt P11509); test: as §1
T2 sequence (P11509 whole entry): T1 sequence (P11509 whole entry)

[3] = target: T3, CYP1A1 (Rattus norvegicus, UniProt P00185); test: (§2) Mechanism based inhibition of rat cytochrome P450 CYP1A1 measured by 7-ethoxyresorufin O-deethylation (EROD); conditions: rat, probe 7-ethoxyresorufin (O-deethylation, EROD)
T3 sequence (P00185 whole entry): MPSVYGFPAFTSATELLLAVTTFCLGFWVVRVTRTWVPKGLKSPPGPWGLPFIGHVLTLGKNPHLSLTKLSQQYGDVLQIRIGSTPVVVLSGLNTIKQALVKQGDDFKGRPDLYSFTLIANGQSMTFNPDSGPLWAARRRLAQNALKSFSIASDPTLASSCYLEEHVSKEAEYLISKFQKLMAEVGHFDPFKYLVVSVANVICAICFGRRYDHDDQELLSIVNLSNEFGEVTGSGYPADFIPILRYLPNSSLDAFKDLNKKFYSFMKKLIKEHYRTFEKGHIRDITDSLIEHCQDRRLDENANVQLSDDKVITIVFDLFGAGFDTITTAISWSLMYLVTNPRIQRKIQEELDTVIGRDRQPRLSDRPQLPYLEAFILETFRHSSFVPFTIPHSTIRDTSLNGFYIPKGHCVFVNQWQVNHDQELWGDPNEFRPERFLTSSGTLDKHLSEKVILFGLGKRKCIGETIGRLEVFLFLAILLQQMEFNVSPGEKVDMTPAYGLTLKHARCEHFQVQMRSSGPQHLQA

[4] = target: T4, Cytochrome P450 1A1 (Rattus norvegicus, UniProt P00185); test: as §2
T4 sequence (P00185 whole entry): T3 sequence (P00185 whole entry)

[5] = target: T5, Cytochrome P450 3A4 (Homo sapiens, UniProt P08684); test: (§3) Mechanism based inhibition of human cytochrome P450 3A4 measured by (14C)formaldehyde production from (N-methyl-14C)-erythromycin
[6] = target: T6, CYP3A4 (Homo sapiens, UniProt P08684); test: as §3; conditions: human, probe (N-methyl-14C)-erythromycin
[7] = target: T5, Cytochrome P450 3A4; test: (§4) Mechanism based inhibition of human cytochrome P450 3A4 measured by testosterone 6-beta hydroxylation
[8] = target: T6, CYP3A4; test: as §4; conditions: probe testosterone (6-beta hydroxylation)
[9] = target: T7, Cytochrome P450 1A2 (Homo sapiens, UniProt P05177); test: Mechanism based inhibition of human cytochrome P450 1A2 measured by 7-ethoxyresorufin O-deethylation (EROD)
T7 sequence (P05177 whole entry): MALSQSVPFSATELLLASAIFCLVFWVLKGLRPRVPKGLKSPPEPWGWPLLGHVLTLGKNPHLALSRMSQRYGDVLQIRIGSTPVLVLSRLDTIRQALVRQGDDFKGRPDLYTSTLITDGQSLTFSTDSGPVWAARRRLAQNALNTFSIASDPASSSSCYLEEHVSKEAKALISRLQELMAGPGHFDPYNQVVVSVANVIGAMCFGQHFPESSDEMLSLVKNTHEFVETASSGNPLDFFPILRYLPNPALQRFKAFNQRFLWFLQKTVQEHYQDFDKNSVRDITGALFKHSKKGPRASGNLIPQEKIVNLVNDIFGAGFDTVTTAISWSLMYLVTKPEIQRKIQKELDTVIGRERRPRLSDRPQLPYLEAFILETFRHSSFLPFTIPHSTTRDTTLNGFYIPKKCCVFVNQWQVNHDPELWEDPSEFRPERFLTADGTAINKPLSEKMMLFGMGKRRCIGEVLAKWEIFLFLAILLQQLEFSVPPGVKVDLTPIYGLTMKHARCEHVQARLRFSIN

[10] = target: T8, Cytochrome P450 2B1 (Rattus norvegicus, UniProt P00176); test: Mechanism based inhibition of rat cytochrome P450 2B1
T8 sequence (P00176 whole entry): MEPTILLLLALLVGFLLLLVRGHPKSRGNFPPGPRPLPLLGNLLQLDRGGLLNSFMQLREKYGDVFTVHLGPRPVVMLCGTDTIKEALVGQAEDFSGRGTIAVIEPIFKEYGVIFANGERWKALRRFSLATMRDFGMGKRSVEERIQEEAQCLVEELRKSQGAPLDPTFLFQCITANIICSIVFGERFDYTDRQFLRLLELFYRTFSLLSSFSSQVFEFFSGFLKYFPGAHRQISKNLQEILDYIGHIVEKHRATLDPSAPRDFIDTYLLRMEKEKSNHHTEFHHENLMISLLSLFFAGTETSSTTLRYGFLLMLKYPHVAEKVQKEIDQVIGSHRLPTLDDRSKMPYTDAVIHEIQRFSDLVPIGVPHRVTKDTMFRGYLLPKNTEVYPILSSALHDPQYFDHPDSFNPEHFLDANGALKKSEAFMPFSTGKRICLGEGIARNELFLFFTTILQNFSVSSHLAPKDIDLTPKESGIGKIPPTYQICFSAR

[11] = target: T8, Cytochrome P450 2B1; test: Mechanism based inhibition of rat cytochrome P450 CYP2B1 measured by 7-EFC O-deethylation activity; conditions: rat
[12] = target: T9, Cytochrome P450 1A1 (Homo sapiens, UniProt P04798); test: Mechanism based inhibition of human cytochrome P450 1A1 measured by 7-ethoxyresorufin O-deethylation (EROD)
T9 sequence (P04798 whole entry): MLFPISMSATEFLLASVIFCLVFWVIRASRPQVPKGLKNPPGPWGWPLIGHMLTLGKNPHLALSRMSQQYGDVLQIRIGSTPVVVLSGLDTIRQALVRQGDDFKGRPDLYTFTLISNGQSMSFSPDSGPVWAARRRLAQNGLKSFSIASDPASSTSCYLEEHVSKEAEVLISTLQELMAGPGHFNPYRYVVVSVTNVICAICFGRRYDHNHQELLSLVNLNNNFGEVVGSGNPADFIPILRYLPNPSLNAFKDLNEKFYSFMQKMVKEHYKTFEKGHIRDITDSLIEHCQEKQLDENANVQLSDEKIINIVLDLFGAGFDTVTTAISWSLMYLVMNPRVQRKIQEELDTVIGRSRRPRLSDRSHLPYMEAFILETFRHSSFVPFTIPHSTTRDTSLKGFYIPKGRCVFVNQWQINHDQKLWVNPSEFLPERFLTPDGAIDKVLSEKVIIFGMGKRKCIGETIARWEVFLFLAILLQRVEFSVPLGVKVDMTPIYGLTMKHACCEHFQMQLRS

[13] = target: Cytochrome P450 2E1 (Homo sapiens, UniProt P05181); test: Mechanism based inhibition of human cytochrome P450 2E1
Cytochrome P450 2E1, sequence (P05181 whole entry): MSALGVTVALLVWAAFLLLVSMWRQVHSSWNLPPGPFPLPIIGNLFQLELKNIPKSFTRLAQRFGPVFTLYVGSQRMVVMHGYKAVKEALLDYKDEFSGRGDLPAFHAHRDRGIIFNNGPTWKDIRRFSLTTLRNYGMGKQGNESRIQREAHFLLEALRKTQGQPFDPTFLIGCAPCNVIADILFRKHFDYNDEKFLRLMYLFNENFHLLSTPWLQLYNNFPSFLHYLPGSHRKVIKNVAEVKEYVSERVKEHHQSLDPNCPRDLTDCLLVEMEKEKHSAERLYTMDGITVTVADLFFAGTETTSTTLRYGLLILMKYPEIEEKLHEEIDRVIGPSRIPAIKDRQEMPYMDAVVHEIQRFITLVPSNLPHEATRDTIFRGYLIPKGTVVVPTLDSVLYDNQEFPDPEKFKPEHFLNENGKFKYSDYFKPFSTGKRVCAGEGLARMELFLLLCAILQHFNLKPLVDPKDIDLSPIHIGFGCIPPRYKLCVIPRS

T5 sequence (P08684 whole entry): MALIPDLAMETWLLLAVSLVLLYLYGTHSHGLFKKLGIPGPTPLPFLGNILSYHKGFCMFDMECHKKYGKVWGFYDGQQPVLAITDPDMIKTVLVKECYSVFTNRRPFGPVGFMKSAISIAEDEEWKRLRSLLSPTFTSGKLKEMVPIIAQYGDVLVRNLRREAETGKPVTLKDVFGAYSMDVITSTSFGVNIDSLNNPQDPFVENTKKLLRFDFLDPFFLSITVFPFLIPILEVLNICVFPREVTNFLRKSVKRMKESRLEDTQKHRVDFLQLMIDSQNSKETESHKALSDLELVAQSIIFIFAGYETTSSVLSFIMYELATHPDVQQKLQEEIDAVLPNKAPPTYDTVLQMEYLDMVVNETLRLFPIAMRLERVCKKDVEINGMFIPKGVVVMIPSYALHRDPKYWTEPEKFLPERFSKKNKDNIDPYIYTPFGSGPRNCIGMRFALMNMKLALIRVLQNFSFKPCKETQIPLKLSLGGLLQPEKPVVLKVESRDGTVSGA
T6 sequence (P08684 whole entry): as above

- kinact ([1]; human, probe coumarin): 0.0008 s⁻¹
- Ki [2]: 9.15 mM
Structure (SMILES): CCCC(CCC)C(=O)O [VALPROIC ACID]

- kinact [3]: 0.00833 s⁻¹
- Ki [4]: 540 nM
Structure (SMILES): CC#CCCCc1ccccc1

- Ki [7]: 0.24 µM
- kinact ([8]; human): 0.00367 s⁻¹
Structure (SMILES): CC(C)CN(C[C@@H](O)[C@H](Cc1ccccc1)NC(=O)[C@@H](NC(=O)CNCc1cccc(F)c1)C(C)(C)C)S(=O)(=O)c1cccc(N)c1

- Ki [5]: 142 nM
- kinact [6]: 0.00375 s⁻¹
Structure (SMILES): OC[C@H](Cc1ccc2c(c1)OCO2)[C@H](CO)Cc1ccc2c(c1)OCO2 [DIHYDROCUBEBIN]

- Ki [5]: 373 nM
- kinact [6]: 0.00525 s⁻¹
Structure (SMILES): O=C1OC[C@H](Cc2ccc3c(c2)OCO3)[C@H]1Cc1ccc2c(c1)OCO2 [HINOKININ]

- Ki [7]: 7.93 µM
- kinact ([8]; human): 0.00117 s⁻¹
Structure (SMILES): CNCCCC(C#N)(c1ccc(OC)c(OC)c1)C(C)C (stereo unspecified)

- Ki [10]: 31 µM
Structure (SMILES): S=P(N1CC1)(N1CC1)N1CC1 [THIOTEPA]

- kinact [3]: 0.0015 s⁻¹
- Ki [4]: 8600 nM
Structure (SMILES): C#Cc1ccc(NC(C)=O)cc1

- mechanism based inhibition [7]: Cytochrome P450 mechanistic inhibitor
Structure (SMILES): CCC[C@@H](NC(=O)N1C(=O)C(CC)(CC)[C@@H]1Oc1ccc(C(=O)N2CCN(C)CC2)cc1)c1ccc2c(c1)OCO2

- kinact ([1]; human, probe coumarin (7-hydroxylation)): 0.00233 s⁻¹
- Ki [2]: 0.027 mM
Structure (SMILES): COc1c2c(cc3ccc(=O)oc13)CCO2

- Ki [5]: 54 nM
- kinact [6]: 0.00517 s⁻¹
Structure (SMILES): COc1cc(C[C@@H](CO)[C@H](CO)Cc2ccc3c(c2)OCO3)cc(OC)c1OC

- Ki [5]: 108000 nM
- kinact [6]: 0.00645 s⁻¹
Structure (SMILES): O=c1c2ccccc2nc2n1CCc1c-2[nH]c2ccccc12 [RUTAECARPINE]

- Ki [5]: 82 nM
- kinact [6]: 0.00422 s⁻¹
Structure (SMILES): COc1cc(C[C@H]2C(O)OC[C@@H]2Cc2ccc3c(c2)OCO3)cc(OC)c1OC (stereo partly specified)

- kinact [8]: 0.000785 s⁻¹
Structure (SMILES): NNc1nnc(NN)c2ccccc12 [DIHYDRALAZINE]

Second part, the molecule before the results:

Structure (SMILES): C#Cc1ccc2ccc3cccc4ccc1c2c34
- kinact [3]: 0.00117 s⁻¹
- Ki [4]: 20 nM

Structure (SMILES): COc1cc(C[C@H]2C(=O)OC[C@@H]2Cc2ccc3c(c2)OCO3)cc(OC)c1OC
- Ki [5]: 177 nM
- kinact [6]: 0.00533 s⁻¹

Structure (SMILES): CC#Cc1ccc2ccccc2c1
- mechanism based inhibition ([4]; rat): Cytochrome P450 mechanistic inhibitor: PMID 9074808

Structure (SMILES): C#Cc1ccc2ccc3ccccc3c2c1
- kinact [3]: 0.00167 s⁻¹
- Ki [4]: 90 nM

Structure (SMILES): C#C [ETHYNE]
- mechanism based inhibition [9]: Cytochrome P450 mechanistic inhibitor: PMID 9760279

Structure (SMILES): O=NOO [PEROXYNITRITE]
- mechanism based inhibition [10]: Cytochrome P450 mechanistic inhibitor: PMID 12588183
- mechanism based inhibition [11]: Cytochrome P450 mechanistic inhibitor: PMID 9760281

Structure (SMILES): Oc1ccc(/C=C/c2cc(O)cc(O)c2)cc1 [RESVERATROL]
- mechanism based inhibition [12]: Cytochrome P450 mechanistic inhibitor: PMID 11259321
- mechanism based inhibition [7]: Cytochrome P450 mechanistic inhibitor: PMID 11701226

Structure (SMILES): C#Cc1ccc2c(ccc3ccccc32)c1
- kinact [3]: 0.0133 s⁻¹
- Ki [4]: 250 nM

Structure (SMILES): CN1CCC[C@H]1c1cccnc1 [NICOTINE]
- kinact ([1]; probe coumarin): 1.18 s⁻¹

Structure (SMILES): Cc1cc(C)c(SCC[n+]2noc([O-])c2C)c(C)c1
- mechanism based inhibition [12]: Cytochrome P450 mechanistic inhibitor: PMID 9107543
- mechanism based inhibition [7]: Cytochrome P450 mechanistic inhibitor: PMID 9107543
- mechanism based inhibition [9]: Cytochrome P450 mechanistic inhibitor: PMID 9107543

Structure (SMILES): C=C[C@]1(C)C[C@@H](OC(=O)CSCCN(CC)CC)[C@]2(C)[C@H](C)CC[C@]3(CCC(=O)[C@H]32)[C@@H](C)[C@@H]1O [TIAMULIN]
- mechanism based inhibition [7]: Cytochrome P450 mechanistic inhibitor: PMID 7575636

Structure (SMILES): COc1cc(CNC(=O)CCCC/C=C/C(C)C)ccc1O [CAPSAICIN]
- mechanism based inhibition [13]: Cytochrome P450 mechanistic inhibitor: PMID 7746093

Structure (SMILES): Cn1cccc1-c1cccnc1 [NICOTYRINE]
- kinact ([1]; probe coumarin): 0.104 s⁻¹
